These are literature values, as cited in patent US20070191304A1, “Methods for performing percutaneous coronary intervention” (priority 2005, published 2007).

For this data set the following is noted: bivalirudin plus GP IIb/IIIa inhibitors.

On to bivalirudin, for which the “Primary endpoint of death, myocardial infarction, urgent revascularization and major bleeding, compared to UFH plus planned GP IIb/IIIa inhibitors” value was “noninferior”.
